Patent US12637499B2, “Adrenomedullin analog, method for producing the same, and pharmaceutical use thereof” (priority 2020, dated 2026)

Key:
[1] = in vitro; settings: plasma, pH 7.1
Protocol: After the lapse of a predetermined time, a 30-μl portion was taken out of the reaction solution, transferred into 170 μl of 0.1% aqueous solution of trifluoroacetic acid (TFA), and stored at −80° C. until analysis.
Quantitative analysis was performed for AM contained in the thus-obtained samples of a reaction mixture with serum or plasma by using specific fluoroimmunoassay (Tosoh Corporation) with two antibodies differing in their recognition sites. […] In the figure, the abscissa represents reaction time (min), and the ordinate represents concentration of AM (UM).

[2] = in vivo; settings: male, Wistar, rat, plasma, sc, 50 nmol/kg
[3] = in vitro; settings: Experiment VIII; 10^−7 M, 37° C.; 1 hour after the beginning of reaction
[4] = in vitro; settings: serum, pH 7.1

Q: For `CC[C@H](C)[C@H](NC(=O)[C@H](CCC(N)=O)NC(=O)[C@H](Cc1c[nH]cn1)NC(=O)[C@H](C)NC(=O)[C@H](CC(C)C)NC(=O)[C@H](CCCCN)NC(=O)[C@H](CCC(N)=O)NC(=O)[C@@H](NC(=O)[C@@H](NC(=O)[C@@H]1CSSC[C@H](NC(=O)CNC(=O)[C@H](Cc2ccccc2)NC(=O)[C@H](CO)NC(=O)[C@H](CCCNC(=N)N)NC(=O)[C@H](CC(C)C)NC(=O)CNC(=O)[C@H](CCC(N)=O)NC(=O)[C@H](Cc2ccccc2)NC(=O)[C@H](CC(N)=O)NC(=O)[C@H](CC(N)=O)NC(=O)[C@H](CCSC)NC(=O)[C@H](CO)NC(=O)[C@H](CCC(N)=O)NC(=O)[C@H](CCCNC(=N)N)NC(=O)[C@@H](N)Cc2ccc(O)cc2)C(=O)N[C@@H](CCCNC(=N)N)C(=O)N[C@@H](Cc2ccccc2)C(=O)NCC(=O)N[C@@H]([C@@H](C)O)C(=O)N1)[C@@H](C)O)C(C)C)C(=O)N[C@@H](Cc1ccc(O)cc1)C(=O)N[C@@H](CCC(N)=O)C(=O)N[C@@H](Cc1ccccc1)C(=O)N[C@H](C(=O)N[C@@H](CC(=O)O)C(=O)N[C@@H](CCCCN)C(=O)N[C@@H](CC(=O)O)C(=O)N[C@@H](CCCCN)C(=O)N[C@@H](CC(=O)O)C(=O)N[C@@H](CC(N)=O)C(=O)N[C@H](C(=O)N[C@@H](C)C(=O)N1CCC[C@H]1C(=O)N[C@@H](CCCNC(=N)N)C(=O)N[C@@H](CO)C(=O)N[C@@H](CCCCN)C(=O)N[C@H](C(=O)N[C@@H](CO)C(=O)N1CCC[C@H]1C(=O)N[C@@H](CCC(N)=O)C(=O)NCC(=O)N[C@@H](Cc1ccc(O)cc1)C(N)=O)[C@@H](C)CC)C(C)C)[C@@H](C)O` [hAM(1-52), YRQSMNNFQGLRSFGCRFGTCTVQKLAHQIYQFTDKDKDNVAPRSKISPQGY-CONH2, reference compound], which remaining at 4 h [1] is on record?
A: The remaining at 4 h was 85%.

Q: And the half-life [2]?
A: The half-life was 1.23 h.

Q: What about the “presence in reaction mixture with human serum” value [3] of the same compound?
A: Its value is “substantially disappeared”.

Q: And the remaining at 4 h [4]?
A: The remaining at 4 h was 0.2%.
